“Also recorded” adds a separate entry of the source.
Columns and labels:
[1] = test system: primary motor neurons (MNs); assay: Actin depolymerization assay: immunofluorescence of NCT factors in Latrunculin A treated motor neurons; assay type: cell-based, mouse; details: 0.1 mg/L Latrunculin A for 3 days
Description: Primary motor neurons (MNs) were isolated from E12.5 mouse embryonic spinal cords dissociated in 0.1% trypsin (Worthington) at 37° C. for 12 minutes. MNs were purified using a 6% Optiprep (Sigma-Aldrich) density gradient and plated on glass coverslips coated with 0.5 g/L poly-ornithine (Sigma-Aldrich) and laminin (Thermo Fisher). Cells were grown at 37° C. and 5% CO2 in Neurobasal medium (Thermo Fisher) supplemented with 0.25% Glutamax, 2% B27, 2% horse serum, and 10 ng/ml BDNF, GDNF, and CNTF. MNs at 2 days in vitro (DIV) were transfected using 1.75 μl NeuroMag reagent (OZ Biosciences)+0.5 μg DNA. Complete growth medium was replaced with serum free neurobasal medium 1 hour prior and after transfection. The paramagnetic nanobeads used for transfection can linger inside the cell and in the extracellular space for several days and can be detected as DAPI positive dots. The V5-PFN1 plasmids were described in Wu, C. H. et al. Mutations in the profilin 1 gene cause familial amyotrophic lateral sclerosis. Nature 488, 499-503 (2012). The (G4C2)80 (SEQ ID NO:12). construct was described in Almeida, S. et al. Modeling key pathological features of frontotemporal dementia with C9ORF72 repeat expansion in iPSC-derived human neurons. Acta Neuropathol 126, 385-399 (2013). For the GFP-PFN1 constructs, WT or mutant PFN1 was PCR amplified from the V5 constructs and cloned in the pEGFP-C1 backbone using BamHI sites. The FH1-FH2 domains of murine formin mDia1 (amino acid residues 553-1192) were PCR amplified using specific primers and cloned into the pEGFP-C1 plasmid using XhoI and BamHI restriction sites. GFP or GFP-mDia1 were co-transfected in a 1:2 ratio with PFN1 or C9ORF72 plasmids. Mock transfection controls were performed by subjecting the cells to all the steps of transfection without adding any plasmid DNA. For actin depolymerization assays, 2 DIV MNs were treated with 0.1 mg/L Latrunculin A (Cayman) for 3 days. For nuclear export inhibition, MNs were treated with 50 nM KPT-276 (Selleck) or equal volume of DMSO (Sigma Aldrich) 1 day after transfection. For formin induction, MNs were treated with 0.1 μM IMM01 (EMD Millipore) for 24 hr before fixation at 6 DIV.
Cells were fixed with 4% paraformaldehyde for 15 minutes. Fixed motor neurons were treated with hot 10 mM citrate buffer, pH 6 for 20 minutes before permeabilization with 0.2% Triton-X 100 for 5 minutes. […]
(§1) Immunofluorescence images were deconvolved using an adaptative blind deconvolution algorithm (Autoquant X3, Media Cybernetics) before analysis. To measure fluorescence intensities, the signals were thresholded and the resulting integrated densities were normalized on the area of the selected region (e.g. cell body, nucleus). […]

[2] = test system: primary motor neurons (MNs); assay: Cell death / apoptosis in treated motor neurons; assay type: cell-based, mouse
Description: (§2) Primary motor neurons (MNs) were isolated from E12.5 mouse embryonic spinal cords dissociated in 0.1% trypsin (Worthington) at 37° C. for 12 minutes. MNs were purified using a 6% Optiprep (Sigma-Aldrich) density gradient and plated on glass coverslips coated with 0.5 g/L poly-ornithine (Sigma-Aldrich) and laminin (Thermo Fisher). Cells were grown at 37° C. and 5% CO2 in Neurobasal medium (Thermo Fisher) supplemented with 0.25% Glutamax, 2% B27, 2% horse serum, and 10 ng/ml BDNF, GDNF, and CNTF. MNs at 2 days in vitro (DIV) were transfected using 1.75 μl NeuroMag reagent (OZ Biosciences)+0.5 μg DNA. Complete growth medium was replaced with serum free neurobasal medium 1 hour prior and after transfection. The paramagnetic nanobeads used for transfection can linger inside the cell and in the extracellular space for several days and can be detected as DAPI positive dots. The V5-PFN1 plasmids were described in Wu, C. H. et al. Mutations in the profilin 1 gene cause familial amyotrophic lateral sclerosis. Nature 488, 499-503 (2012). The (G4C2)80 (SEQ ID NO:12). construct was described in Almeida, S. et al. Modeling key pathological features of frontotemporal dementia with C9ORF72 repeat expansion in iPSC-derived human neurons. Acta Neuropathol 126, 385-399 (2013). […]

[3] = test system: primary motor neurons (MNs) expressing C71G PFN1; assay: Axon length and outgrowth analysis; assay type: cell-based, mouse
Description: Motor neurons were co-transfected as outlined above with green fluorescent protein (GFP) and V5-tagged PFN1 constructs in a 1:2 ratio. KPT-276 (50 nM) or equal volumes of DMSO were added to the culture medium 1 day after transfection and maintained throughout the experiment for a total of 3 days. Cells were fixed and stained to detect V5-PFN1 expression 4 days after transfection. Cells were imaged as individual focal planes using a 10× lens. GFP was used to identify transfected cells and highlight the whole cell structure. […]
Immunofluorescence images were deconvolved using an adaptative blind deconvolution algorithm (Autoquant X3, Media Cybernetics) before analysis. To measure fluorescence intensities, the signals were thresholded and the resulting integrated densities were normalized on the area of the selected region (e.g. cell body, nucleus). […] For NCT dynamics, the fluorescence intensity of S-mCherry was measured in the nucleus using ImageJ and normalized to the background for every time point. […] For the analysis of axonal fluorescence intensities, a 100 μm long region of the proximal axon was measured in all conditions. Axon lengths were measured using the ImageJ plugin NeuronJ 60. […] The rate of axon outgrowth was measured using the ImageJ plugin MTrackJ by tracking the movement of the growth cone in all fields. […]

[4] = test system: primary motor neurons (MNs) expressing C71G PFN1; assay: Immunofluorescence of nuclear pore/NCT factors and TDP-43 in motor neurons expressing mutant PFN1; assay type: cell-based, mouse; details: vs DMSO
Description: as §2, with “(2013). For the GFP-PFN1 constructs, WT or mutant PFN1 was PCR amplified from the V5 constructs and cloned in the pEGFP-C1 backbone using BamHI sites. The FH1-FH2 domains of murine formin mDia1 (amino acid residues 553-1192) were PCR amplified using specific primers and cloned into the pEGFP-C1 plasmid using XhoI and BamHI restriction sites. GFP or GFP-mDia1 were co-transfected in a 1:2 ratio with PFN1 or C9ORF72 plasmids.” for “(2013).”
as §1

[5] = test system: fibroblasts from ALS patients carrying C9ORF72 repeat expansions; assay: FISH for C9ORF72 RNA nuclear foci in patient fibroblasts; assay type: cell-based, human; details: IMM01 treatment
Description: Fibroblasts were obtained from skin biopsies of 3 ALS patients carrying mutations in C9ORF72 gene and of 3 healthy donors, sex- and age-matched with ALS cases, after informed consent and approval by the IRCCS Istituto Auxologico Italiano ethics committee. C9ORF72 mutation was validated in primary fibroblasts by repeat-primed PCR and repeat expansion size determined by Southern blot analysis (range 600-1500 units). Fibroblasts were grown in RPMI 1640 medium (EuroClone) containing 2 g/L glucose and supplemented with 10% FBS (Sigma Aldrich), 2 mM L-glutamine, 2.5 μg/ml amphotericin B (Sigma Aldrich), 100 units/ml penicillin and 100 μg/ml streptomycin (Gibco). 10,000 cell/well were seeded on glass coverslip in 24-well plates and after 24 hours, 50% of medium was replaced with fresh medium and IMM01 (Sigma Aldrich) at the final concentration of 0.1 μM. After a 24-hour treatment, cells were fixed with 4% paraformaldehyde for 20 minutes, permeabilized with 0.3% Triton X-100/1×PBS for 5 minutes and processed for immunofluorescence as described below.
Motor neurons were fixed in 4% RNase-free paraformaldehyde for 15 minutes and stored in 70% ethanol at 4° C. overnight. […]

[6] = test system: fibroblasts from ALS patients carrying C9ORF72 repeat expansions; assay: Immunofluorescence of RanGAP1 and FG-Nups in C9ORF72-ALS patient fibroblasts; assay type: cell-based, human; details: 0.1 μM IMM01 for 24 hours, vs DMSO
Description: Fibroblasts were obtained from skin biopsies of 3 ALS patients carrying mutations in C9ORF72 gene and of 3 healthy donors, sex- and age-matched with ALS cases, after informed consent and approval by the IRCCS Istituto Auxologico Italiano ethics committee. C9ORF72 mutation was validated in primary fibroblasts by repeat-primed PCR and repeat expansion size determined by Southern blot analysis (range 600-1500 units). Fibroblasts were grown in RPMI 1640 medium (EuroClone) containing 2 g/L glucose and supplemented with 10% FBS (Sigma Aldrich), 2 mM L-glutamine, 2.5 μg/ml amphotericin B (Sigma Aldrich), 100 units/ml penicillin and 100 μg/ml streptomycin (Gibco). […]
Immunofluorescence images were deconvolved using an adaptative blind deconvolution algorithm (Autoquant X3, Media Cybernetics) before analysis. To measure fluorescence intensities, the signals were thresholded and the resulting integrated densities were normalized on the area of the selected region (e.g. cell body, nucleus). […] For NCT dynamics, the fluorescence intensity of S-mCherry was measured in the nucleus using ImageJ and normalized to the background for every time point. […] For the analysis of axonal fluorescence intensities, a 100 μm long region of the proximal axon was measured in all conditions. Axon lengths were measured using the ImageJ plugin NeuronJ 60. […]

[7] = test system: Neurofilament L mRNA in MNs expressing C71G PFN1; assay: Fluorescence in situ hybridization of Neurofilament L mRNA; assay type: cell-based, mouse; details: IMM01 vs DMSO
Description: as §2, with “C.” for “C. H. et al. Mutations in the profilin 1 gene cause familial amyotrophic lateral sclerosis. Nature 488, 499-503 (2012). The (G4C2)80 (SEQ ID NO:12). construct was described in Almeida, S. et al. Modeling key pathological features of frontotemporal dementia with C9ORF72 repeat expansion in iPSC-derived human neurons. Acta Neuropathol 126, 385-399 (2013).”
Immunofluorescence images were deconvolved using an adaptative blind deconvolution algorithm (Autoquant X3, Media Cybernetics) before analysis. To measure fluorescence intensities, the signals were thresholded and the resulting integrated densities were normalized on the area of the selected region (e.g. cell body, nucleus). […] For NCT dynamics, the fluorescence intensity of S-mCherry was measured in the nucleus using ImageJ and normalized to the background for every time point. […]

C/C1=C/C(=O)O[C@@H]2C[C@@H](CC[C@H](C)/C=C\C=C\CC1)O[C@@](O)([C@@H]1CSC(=O)N1)C2 [Latrunculin A]
localization of FG-Nups [1]: severe mislocalization | localization of Ran [1]: severe mislocalization; also recorded: disrupted | localization of RanGAP1 [1]: severe mislocalization; also recorded: disrupted | nuclear morphology [1]: smaller nuclei with condensed DNA | cell death or apoptosis ([2]; MNs, Latrunculin A treatment conditions (0.1 mg/L, 3 days), data not shown): No increased cell death or apoptosis was observed

O=C(/C=C\n1cnc(-c2cc(C(F)(F)F)cc(C(F)(F)F)c2)n1)N1CC(F)(F)C1 [KPT-276]
axon length ([3]; 50 nM KPT-276 for 3 days, vs DMSO): fully rescued the defect | rate of axon growth (outgrowth) by live cell imaging ([3]; 50 nM KPT-276 ~18-24 hours, imaged over 1 hour): full rescue of the outgrowth defects | C:N ratio of TDP-43 (TDP-43 cytoplasmic mislocalization) ([4]; 50 nM KPT-276 6 hours prior to fixation): fully rescue TDP-43 cytoplasmic mislocalization; also recorded: rescues C:N ratio of TDP-43

CC(C)(C)NC(=S)N/N=C/c1ccc(O)cc1O [IMM01]
propensity of the cell to form C9ORF72-positive nuclear foci [5]: without changes to the propensity of the cell to form C9ORF72-positive nuclear foci | localization of FG-Nups [6]: rescued defects in the localization; also recorded: significantly rescued the defects | localization of RanGAP1 [6]: rescued defects in the localization; also recorded: significantly rescued the defects | induction of apoptosis ([2]; primary MNs, 0.1 μM IMM01 for 24 hours): No induction of apoptosis was detected | FG-Nups localization at the nuclear envelope ([4]; 0.1 μM IMM01 for 24 hours): rescue of FG-Nups defective localization at the nuclear envelope; also recorded: rescue of mislocalization | Ran gradient (Ran localization) ([4]; 0.1 μM IMM01 for 24 hours): rescue of mislocalization | axonal localization of Nef1 mRNA [7]: rescue the defects in the axonal localization; also recorded: rescue of mislocalization
